Experimental data taken from ChEMBL document CHEMBL5131382, “Facile and divergent optimization of chromazonarol enabled the identification of simplified drimane meroterpenoids as novel pharmaceutical leads” (Eur J Med Chem, 2022).

Legend:
Format in all cases: functional
[1] = tested on: Sclerotinia sclerotiorum; assay: Antifungal activity against Sclerotinia sclerotiorum at 150 uM
[2] = tested on: Rhizoctonia solani; assay: Antifungal activity against Rhizoctonia solani at 150 uM
[3] = tested on: Fusarium graminearum; assay: Antifungal activity against Fusarium graminearum at 150 uM
[4] = tested on: Pyricularia oryzae; assay: Antifungal activity against Pyricularia oryzae at 150 uM
[5] = tested on: Phytophthora capsici; assay: Antifungal activity against Phytophthora capsici at 150 uM

Measured: inhibition at 150 µM

CC1(C)CCC[C@]2(C)[C@H]3Cc4cc(O)ccc4O[C@]3(C)CC[C@@H]12
< 60%: [1] | [2] | [3] | [4] | [5]

CC1(C)CCC[C@]2(C)[C@H]3Cc4cc(OC(=O)c5ccccc5)ccc4O[C@]3(C)CC[C@@H]12
< 60%: [1] | [2] | [3] | [4] | [5]

COc1ccc(C(=O)Oc2ccc3c(c2)C[C@@H]2[C@@]4(C)CCCC(C)(C)[C@@H]4CC[C@@]2(C)O3)cc1
< 60%: [1] | [2] | [3] | [4] | [5]

CC1(C)CCC[C@]2(C)[C@H]3Cc4cc(OC(=O)c5ccccn5)ccc4O[C@]3(C)CC[C@@H]12
< 60%: [1] | [2] | [3] | [4] | [5]

CC1(C)CCC[C@]2(C)[C@H]3Cc4cc(OC(=O)c5cccc(F)c5)ccc4O[C@]3(C)CC[C@@H]12
< 60%: [1] | [2] | [3] | [4] | [5]

CC1(C)CCC[C@]2(C)[C@H]3Cc4cc(Oc5cnc6ccccc6c5)ccc4O[C@]3(C)CC[C@@H]12
< 60%: [1] | [2] | [3] | [4] | [5]

CC1(C)CCC[C@]2(C)[C@H]3Cc4cc(OC(=O)c5cccnc5)ccc4O[C@]3(C)CC[C@@H]12
< 60%: [1] | [2] | [3] | [4] | [5]

C#CCOc1ccc2c(c1)C[C@@H]1[C@@]3(C)CCCC(C)(C)[C@@H]3CC[C@@]1(C)O2
< 60%: [1] | [2] | [3] | [4] | [5]

COc1ccc2c(c1)C[C@@H]1[C@@]3(C)CCCC(C)(C)[C@@H]3CC[C@@]1(C)O2
< 60%: [1] | [2] | [3] | [4] | [5]

CC1(C)CCC[C@]2(C)[C@H]3Cc4cc(Oc5ccccn5)ccc4O[C@]3(C)CC[C@@H]12
< 60%: [1] | [2] | [3] | [4] | [5]

CC1(C)CCC[C@]2(C)[C@H]3Cc4cc(OC(=O)c5ccc(F)cc5)ccc4O[C@]3(C)CC[C@@H]12
< 60%: [1] | [2] | [3] | [4] | [5]

CC1(C)CCC[C@@]2(C)C1CC[C@@]1(C)Oc3ccc(-c4cccnc4)cc3C[C@@H]12 (stereo not given in full)
< 60%: [1] | [2] | [3] | [4] | [5]

COc1ccc(-c2ccc3c(c2)C[C@H]2[C@@](C)(CCC4C(C)(C)CCC[C@@]42C)O3)cc1 (stereo not given in full)
< 60%: [1] | [2] | [3] | [4] | [5]

CC1(C)CCC[C@@]2(C)C1CC[C@@]1(C)Oc3ccc(-c4cnc5ccccc5c4)cc3C[C@@H]12 (stereo not given in full)
< 60%: [1] | [2] | [3] | [4] | [5]

CC1(C)CCC[C@]2(C)[C@H]3Cc4cc(OC(=O)c5cccnc5Cl)ccc4O[C@]3(C)CC[C@@H]12
< 60%: [1] | [2] | [3] | [4] | [5]

CC1(C)CCC[C@]2(C)[C@H]3Cc4cc(Oc5ccccc5)ccc4O[C@]3(C)CC[C@@H]12
< 60%: [1] | [2] | [3] | [4] | [5]

CC(=O)Oc1ccc2c(c1)C[C@@H]1[C@@]3(C)CCCC(C)(C)[C@@H]3CC[C@@]1(C)O2
< 60%: [1] | [2] | [3] | [4] | [5]

CC1(C)CCC[C@@]2(C)C1CC[C@@]1(C)Oc3ccc(-c4ccsc4)cc3C[C@@H]12 (stereo not given in full)
< 60%: [1] | [2] | [3] | [4] | [5]

CC(C)(C)C(=O)Oc1ccc2c(c1)C[C@@H]1[C@@]3(C)CCCC(C)(C)[C@@H]3CC[C@@]1(C)O2
< 60%: [1] | [2] | [3] | [4] | [5]

CC1(C)CCC[C@@]2(C)C1CC[C@@]1(C)Oc3ccc(-c4ccccc4)cc3C[C@@H]12 (stereo not given in full)
< 60%: [1] | [2] | [3] | [4] | [5]

CC1(C)CCC[C@]2(C)[C@H]3Cc4cc(OCc5ccccc5)ccc4O[C@]3(C)CC[C@@H]12
< 60%: [1] | [2] | [3] | [4] | [5]

CC(C)=CCOc1ccc2c(c1)C[C@@H]1[C@@]3(C)CCCC(C)(C)[C@@H]3CC[C@@]1(C)O2
< 60%: [1] | [2] | [3] | [4] | [5]

CC1(C)CCC[C@]2(C)[C@H]3Cc4cc(OC(=O)c5ccc6ccccc6n5)ccc4O[C@]3(C)CC[C@@H]12
< 60%: [1] | [2] | [3] | [4] | [5]

CCCOc1ccc2c(c1)C[C@@H]1[C@@]3(C)CCCC(C)(C)[C@@H]3CC[C@@]1(C)O2
< 60%: [1] | [2] | [3] | [4] | [5]

CCOc1ccc2c(c1)C[C@@H]1[C@@]3(C)CCCC(C)(C)[C@@H]3CC[C@@]1(C)O2
< 60%: [1] | [2] | [3] | [4] | [5]

CC1(C)CCC[C@@]2(C)C1CC[C@@]1(C)Oc3ccc(-c4ccc(F)cc4)cc3C[C@@H]12 (stereo not given in full)
< 60%: [1] | [2] | [3] | [4] | [5]

C=CCOc1ccc2c(c1)C[C@@H]1[C@@]3(C)CCCC(C)(C)[C@@H]3CC[C@@]1(C)O2
< 60%: [1] | [2] | [3] | [4] | [5]

C=CC(=O)Oc1ccc2c(c1)C[C@@H]1[C@@]3(C)CCCC(C)(C)[C@@H]3CC[C@@]1(C)O2
< 60%: [1] | [2] | [3] | [4] | [5]
